Results taken from the supplement of paper PMC10627819.

Columns and labels:
S. pneumoniae D39V [1] = assay: Bliss interaction score (quartile over a dose matrix) (fitness difference); higher = more antagonism (negative = synergy)
Method in brief: (§1)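 The Bliss score takes observed fitness and subtracts the expected fitness, calculated as a product of single-drug fitness values. Those single-drug values were inferred from the combination data. Fitness is OD595 at entry into stationary phase divided by the plate's robust no-drug mean, capped at 1, and the score is summarised by quartiles across technical, biological and donor/recipient replicates.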

S. aureus DSM 20231 [2] = assay: as above
Method in brief: as §1

S. aureus Newman [3] = assay: as above
Method in brief: as §1

B. subtilis 168 [4] = assay: as above
Method in brief: as §1

S. pneumoniae D39V [5] = assay: fitness (endpoint OD595 vs no drug) (fraction); higher = more growth
Method in brief: (§2)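 Fitness expresses the optical density reached at the stationary-phase transition as a fraction of the robust mean of no-drug control wells. It is capped at 1. Measurements were OD595 every 30 min for 14 h at 37 °C after inoculation of 384-well plates at OD595 0.01 (30 µl, or 55 µl for S. pneumoniae), minus the first reading.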

S. aureus DSM 20231 [6] = assay: as above
Method in brief: as §2

S. aureus Newman [7] = assay: as above
Method in brief: as §2

B. subtilis 168 [8] = assay: as above
Method in brief: as §2
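For Bliss interaction score (quartile over a dose matrix) in this document: first quartile when negative (synergy) and third quartile when positive (antagonism).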
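For fitness (endpoint OD595 vs no drug) in this document: OD595 on entry to stationary phase over no-drug wells; at most 1.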

Cc1ncc([N+](=O)[O-])n1CCO [Metronidazole] + Cc1cc(NS(=O)(=O)c2ccc(N)cc2)no1 [Sulfamethoxazol]
Settings | Bliss interaction score
B. subtilis 168 [4] | 0.0475
S. aureus DSM 20231 [2] | 0.0776
S. aureus Newman [3] | 0.0439
S. pneumoniae D39V [1] | -0.0219

fitness
Settings | first compound 0.625 µg/mL | first compound 1.073 µg/mL | first compound 1.25 µg/mL | first compound 2.145 µg/mL | first compound 2.5 µg/mL | first compound 4.29 µg/mL
B. subtilis 168 [8], partner 1 µg/mL | 0.876 | – | 0.951 | – | 0.948 | –
B. subtilis 168 [8], partner 2 µg/mL | 0.91 | – | 0.903 | – | 0.896 | –
B. subtilis 168 [8], partner 4 µg/mL | 0.962 | – | 0.992 | – | 0.96 | –
S. aureus DSM 20231 [6], partner 1 µg/mL | 0.982 | – | ≥ 1 | – | ≥ 1 | –
S. aureus DSM 20231 [6], partner 2 µg/mL | 0.983 | – | 0.986 | – | 0.988 | –
S. aureus DSM 20231 [6], partner 4 µg/mL | 0.963 | – | 0.969 | – | 0.992 | –
S. aureus Newman [7], partner 1 µg/mL | ≥ 1 | – | 0.977 | – | 0.97 | –
S. aureus Newman [7], partner 2 µg/mL | 0.94 | – | 0.978 | – | 0.95 | –
S. aureus Newman [7], partner 4 µg/mL | 0.979 | – | 0.997 | – | ≥ 1 | –
S. pneumoniae D39V [5], partner 1 µg/mL | – | 0.935 | – | 0.792 | – | 0.912
S. pneumoniae D39V [5], partner 2 µg/mL | – | 0.952 | – | 0.93 | – | 0.95
S. pneumoniae D39V [5], partner 4 µg/mL | – | 0.984 | – | 0.952 | – | 0.944

one replicate
Settings | fitness
B. subtilis 168 [8], first compound 0.625 µg/mL, partner 0.5 µg/mL | ≥ 1
B. subtilis 168 [8], first compound 1.25 µg/mL, partner 0.5 µg/mL | ≥ 1
B. subtilis 168 [8], first compound 2.5 µg/mL, partner 0.5 µg/mL | ≥ 1
S. aureus Newman [7], first compound 0.625 µg/mL, partner 8 µg/mL | 0.864
S. aureus Newman [7], first compound 0.781 µg/mL, partner 1 µg/mL | ≥ 1
S. aureus Newman [7], first compound 0.781 µg/mL, partner 2 µg/mL | ≥ 1
S. aureus Newman [7], first compound 0.781 µg/mL, partner 4 µg/mL | ≥ 1
S. aureus Newman [7], first compound 1.25 µg/mL, partner 8 µg/mL | 0.911
S. aureus Newman [7], first compound 1.562 µg/mL, partner 1 µg/mL | ≥ 1
S. aureus Newman [7], first compound 1.562 µg/mL, partner 2 µg/mL | ≥ 1
S. aureus Newman [7], first compound 1.562 µg/mL, partner 4 µg/mL | ≥ 1
S. aureus Newman [7], first compound 2.5 µg/mL, partner 8 µg/mL | 0.898
S. aureus Newman [7], first compound 3.124 µg/mL, partner 1 µg/mL | 0.992
S. aureus Newman [7], first compound 3.124 µg/mL, partner 2 µg/mL | 0.982
S. aureus Newman [7], first compound 3.124 µg/mL, partner 4 µg/mL | ≥ 1
S. pneumoniae D39V [5], first compound 1.25 µg/mL, partner 1 µg/mL | 0.979
S. pneumoniae D39V [5], first compound 1.25 µg/mL, partner 2 µg/mL | ≥ 1
S. pneumoniae D39V [5], first compound 1.25 µg/mL, partner 4 µg/mL | 0.916
S. pneumoniae D39V [5], first compound 2.5 µg/mL, partner 1 µg/mL | ≥ 1
S. pneumoniae D39V [5], first compound 2.5 µg/mL, partner 2 µg/mL | ≥ 1
S. pneumoniae D39V [5], first compound 2.5 µg/mL, partner 4 µg/mL | 0.917
S. pneumoniae D39V [5], first compound 5 µg/mL, partner 1 µg/mL | ≥ 1
S. pneumoniae D39V [5], first compound 5 µg/mL, partner 2 µg/mL | ≥ 1
S. pneumoniae D39V [5], first compound 5 µg/mL, partner 4 µg/mL | 0.9

COc1cccc2c1C(=O)c1c(O)c3c(c(O)c1C2=O)C[C@@](O)(C(=O)CO)C[C@@H]3O[C@H]1C[C@H](N)[C@H](O)[C@H](C)O1 [Doxorubicin] + O=C(O[C@@H]1Cc2c(O)cc(O)cc2O[C@@H]1c1cc(O)c(O)c(O)c1)c1cc(O)c(O)c(O)c1 [EGCG]
Settings | Bliss interaction score
B. subtilis 168 [4] | -0.0819
S. aureus DSM 20231 [2] | -0.107
S. aureus Newman [3] | 0.0447
S. pneumoniae D39V [1] | 0.0782

fitness
Settings | partner 6.25 µg/mL | partner 12.5 µg/mL | partner 25 µg/mL | partner 50 µg/mL
B. subtilis 168 [8], first compound 0.625 µg/mL | 0.934 | 0.617 | – | –
B. subtilis 168 [8], first compound 1.25 µg/mL | 0.932 | 0.554 | – | –
B. subtilis 168 [8], first compound 2.5 µg/mL | 0.737 | 0.429 | – | –
S. aureus DSM 20231 [6], first compound 0.625 µg/mL | – | 0.688 | 0.707 | –
S. aureus DSM 20231 [6], first compound 1.25 µg/mL | – | 0.708 | 0.676 | –
S. aureus DSM 20231 [6], first compound 2.5 µg/mL | – | 0.728 | 0.715 | –
S. aureus Newman [7], first compound 0.625 µg/mL | – | 0.731 | 0.712 | –
S. aureus Newman [7], first compound 1.25 µg/mL | – | 0.705 | 0.703 | 0.594
S. aureus Newman [7], first compound 2.5 µg/mL | – | 0.678 | 0.66 | 0.617
S. pneumoniae D39V [5], first compound 0.25 µg/mL | – | 0.916 | 0.987 | 0.924
S. pneumoniae D39V [5], first compound 0.5 µg/mL | – | 0.904 | 0.845 | ≥ 1
S. pneumoniae D39V [5], first compound 1 µg/mL | – | – | 0.804 | 0.903
